Data reported in the NIST ThermoML archive (doi:10.1021/je800110r).

Conditions: 303.15 K, Liquid, Vibrating tube method

CCCCCCCCCC [decane]
Conditions | mass density [kg/m3]
24341 kPa | 740.5
24369 kPa | 740.3
24389 kPa | 740.3
24417 kPa | 740.4
24444 kPa | 740.4
24484 kPa | 740.5
24509 kPa | 740.4
24577 kPa | 740.5
24654 kPa | 740.6
24804 kPa | 740.6
24833 kPa | 740.7
24870 kPa | 740.7
24908 kPa | 740.7
24929 kPa | 740.7
24962 kPa | 740.7
24995 kPa | 740.8
25025 kPa | 740.7
25050 kPa | 740.7
25648 kPa | 741.1
25678 kPa | 741.3
25713 kPa | 741.2
25744 kPa | 741.3
25771 kPa | 741.3
25839 kPa | 741.3
25875 kPa | 741.2
25902 kPa | 741.4
25935 kPa | 741.4
25959 kPa | 741.5
26009 kPa | 741.4
26041 kPa | 741.5
26073 kPa | 741.5
26100 kPa | 741.5
26137 kPa | 741.5
26164 kPa | 741.5
26206 kPa | 741.5
26242 kPa | 741.5
26270 kPa | 741.6
26309 kPa | 741.6
26334 kPa | 741.6
26357 kPa | 741.7
26400 kPa | 741.7
26433 kPa | 741.8
26465 kPa | 741.7
26494 kPa | 741.7
26532 kPa | 741.8
26574 kPa | 741.8
26607 kPa | 741.9
26640 kPa | 741.8
26684 kPa | 741.9
26718 kPa | 741.8
26752 kPa | 741.9
26781 kPa | 741.9
26820 kPa | 741.9
26844 kPa | 741.9
26884 kPa | 741.9
26923 kPa | 742
26947 kPa | 742
26982 kPa | 742.1
27007 kPa | 742
27037 kPa | 742.2
27071 kPa | 742.1
27116 kPa | 742.2
27156 kPa | 742.2
27186 kPa | 742.1
27226 kPa | 742.2
27262 kPa | 742.2
27298 kPa | 742.3
27333 kPa | 742.3
27375 kPa | 742.4
27400 kPa | 742.4
27431 kPa | 742.3
27462 kPa | 742.4
27503 kPa | 742.3
27535 kPa | 742.4
27585 kPa | 742.4
27622 kPa | 742.4
27666 kPa | 742.4
27697 kPa | 742.5
27724 kPa | 742.6
27748 kPa | 742.5
27771 kPa | 742.6
27803 kPa | 742.5
27827 kPa | 742.7
27859 kPa | 742.6
27890 kPa | 742.6
27923 kPa | 742.8
27952 kPa | 742.6
27975 kPa | 742.7
27999 kPa | 742.8
28032 kPa | 742.7
28057 kPa | 742.8
28085 kPa | 742.7
28118 kPa | 742.9
28151 kPa | 742.8
28180 kPa | 742.9
28205 kPa | 742.8
28234 kPa | 742.9
28258 kPa | 742.9
28289 kPa | 742.9
28314 kPa | 742.9
28343 kPa | 743
28369 kPa | 743
28399 kPa | 743.1
28443 kPa | 743
28470 kPa | 743.1
28511 kPa | 743.2
28542 kPa | 743.1
28562 kPa | 743.1
28584 kPa | 743.2
28605 kPa | 743.1
28622 kPa | 743.2
28643 kPa | 743.1
28666 kPa | 743.1
28685 kPa | 743.3
28705 kPa | 743.2
28725 kPa | 743.2
28754 kPa | 743.3
28771 kPa | 743.3
28791 kPa | 743.3
28809 kPa | 743.2
28826 kPa | 743.2
28844 kPa | 743.4
28865 kPa | 743.2
28885 kPa | 743.3
28902 kPa | 743.2
28928 kPa | 743.4
28945 kPa | 743.3
28966 kPa | 743.4
28986 kPa | 743.4
29000 kPa | 743.5
29018 kPa | 743.4
29042 kPa | 743.4
29062 kPa | 743.4
29083 kPa | 743.4
29107 kPa | 743.4
29131 kPa | 743.5
29154 kPa | 743.4
